Measured values published in US20160368895A1, “PULMONARY HYPERTENSION TREATING AGENT” (THE UNIVERSITY OF TOKYO, priority 2013, published 2016).

Experiments:
[1] = biological target: T1, human PGI2 receptors (hIP) (Homo sapiens, UniProt P43119); assay: Method C: effect on epoprostenol-cAMP production curve in CHO/hIP cells (left shift value); format: cell-based
T1 construct: expressed in transfected cells; host or cells: CHO-K1
Protocol: The effect of a test compound on the cAMP production curve with respect to the IP agonist epoprostenol (manufactured by GlaxoSmithKline) was investigated using CHO-K1 cells (CHO/hIP cells) in which human PGI2 receptors (hIP) are stably expressed.
(§1) An amount of 5 μL of a mixture (diluted in F-12 culture medium (manufactured by GIBCO) including 0.1% BSA) of epoprostenol dissolved in DMSO and a test compound dissolved in DMSO was dispensed in advance into a 384-well black microplate, and 5 μL of CHO/hIP cells suspended at a concentration of 1.4×10^6 cells/mL in F-12 culture medium including 0.1% BSA were added to the microplate. After 40 minutes of incubation at room temperature, the amount of cAMP was measured using a cAMP assay kit (cAMP HiRange, manufactured by Cisbio Bioassays). Specifically, 5 μL of a cAMP-d2 solution (including a cell lysate) from the kit were added and the reaction was stopped, then 5 μL of a fluorescence-labeled cAMP antibody solution from the kit were added and incubation was performed for 1 hour at room temperature, after which fluorescence was measured using a PHERAstar plate reader (manufactured by BMG) in HTRF (registered trademark) mode. The amount of cAMP in each well was calculated from a cAMP calibration curve obtained using a standard sample, and an epoprostenol-cAMP production curve for the presence of various concentrations of the test compound was created.

[2] = biological target: T1, human PGI2 receptors (hIP); assay: Method B: positive allosteric modulator activity, cAMP in CHO/hIP cells with 1 nM epoprostenol; format: cell-based; details: cAMP relative to 1 nM epoprostenol alone
Protocol: The positive allosteric modulator activity of a test compound was measured as a change in the amount of intracellular cyclic AMP (cAMP) in the presence of 1 nM of the IP agonist epoprostenol (manufactured by GlaxoSmithKline), using CHO-K1 cells (CHO/hIP cells) in which human PGI2 receptors (hIP) are stably expressed.
as §1, with “and” for “and an epoprostenol-cAMP production curve for”, “activity” for “presence”, “each” for “various concentrations of the”, “is noted below as a ratio T/C (%) based on the amount of cAMP for 1 nM of epoprostenol alone.” for “was created.”

[3] = Table 5, concentration of test compound that halves the EC50 of epoprostenol
[4] = Table 4, concentration of test compound that halves the EC50 of epoprostenol

T1 sequence (P43119 whole entry): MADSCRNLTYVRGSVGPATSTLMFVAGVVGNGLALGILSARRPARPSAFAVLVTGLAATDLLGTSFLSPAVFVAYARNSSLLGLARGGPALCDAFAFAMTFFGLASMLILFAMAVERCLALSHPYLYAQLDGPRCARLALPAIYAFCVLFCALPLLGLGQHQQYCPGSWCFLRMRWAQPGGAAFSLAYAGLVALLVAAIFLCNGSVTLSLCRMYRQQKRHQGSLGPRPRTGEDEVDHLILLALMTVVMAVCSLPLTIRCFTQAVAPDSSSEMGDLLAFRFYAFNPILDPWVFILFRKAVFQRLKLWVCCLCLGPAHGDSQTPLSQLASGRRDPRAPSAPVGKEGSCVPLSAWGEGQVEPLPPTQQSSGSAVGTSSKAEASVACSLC

Structure (SMILES) | left shift value [1, 3] | left shift value [1, 4] | T/C ([2]; test concentration 10 uM) | other results
COc1ccccc1C(c1nnnn1C(C)(C)C)N1CCc2sccc2C1 (centres unmarked) [Example 60, 5-((1-(tert-butyl)-1H-tetrazol-5-yl)(2-methoxyphenyl)methyl)-4,5,6,7-tetrahydrothieno[3,2-c]pyridine] | 10.5 µM |  |  | 
CC1(n2nnnc2C(c2cccc(F)c2O)N2CCc3ccccc3C2)CCCCC1 (centres unmarked) [Example 83] | 25.0 µM |  |  | 
CC1(n2nnnc2C(c2ccccc2)N2CCc3ccccc3C2)CCCCC1 (centres unmarked) [Example 41] |  |  |  | T/C ([2]; test concentration 5 uM): 116.3%
COc1ccccc1C(C)(c1nnnn1C(C)(C)C)N1CCc2ccccc2C1 (centres unmarked) [Example 48] |  |  | 72.3% | 
CC1(n2nnnc2C(c2cccs2)N2CCc3sccc3C2)CCCCC1 (centres unmarked) [Example 74, 5-((1-(1-methylcyclohexyl)-1H-tetrazol-5-yl)(thiophen-2-yl)methyl)-4,5,6,7-tetrahydrothieno[3,2-c]pyridine] | 8.6 µM |  |  | 
CC1(n2nnnc2C(c2ccccc2O)N2CCc3ccccc3C2)CCCCC1 (centres unmarked) [Example 71, 2-((3,4-dihydroisoquinolin-2(1H)-yl)-(1-(1-methylcyclohexyl)-1H-tetrazol-5-yl)methyl)phenol] | 2.3 µM |  |  | 
CC(C)(C)n1nnnc1C1c2ccc(F)cc2SC2Cc3ccccc3CN21 (centres unmarked) [Example 7] |  | 24.1 µM | 127.6% | 
CC(C)(C)n1nnnc1C(c1ccc[nH]1)N1CCc2sccc2C1 (centres unmarked) [Example 66, 5-((1-(tert-butyl)-1H-tetrazol-5-yl)(1H-pyrrol-2-yl)methyl)-4,5,6,7-tetrahydrothieno[3,2-c]pyridine] | 84.5 µM |  |  | 
CC(C)(C)n1nnnc1C(c1ccccc1F)N1CCc2sccc2C1 (centres unmarked) [Example 69, 5-((1-(tert-butyl)-1H-tetrazol-5-yl)(2-fluorophenyl)methyl)-4,5,6,7-tetrahydrothieno[3,2-c]pyridine] | 20.6 µM |  |  | 
COc1ccccc1C(c1nnnn1C1(C)CCCCC1)N1CCc2sccc2C1 (centres unmarked) [Example 76, 5-((2-methoxyphenyl)(1-(1-methylcyclohexyl)-1H-tetrazol-5-yl)methyl)-4,5,6,7-tetrahydrothieno[3,2-c]pyridine] | 7.2 µM |  |  | 
Cc1ccccc1C(c1nnnn1C(C)(C)C)N1CCc2ccc(Cl)cc2C1 (centres unmarked) [Example 19] |  |  |  | T/C ([2]; test concentration 5 uM): 90%
CC(C)(C)n1nnnc1C(c1ccsc1)N1CCc2sccc2C1 (centres unmarked) [Example 68, 5-((1-(tert-butyl)-1H-tetrazol-5-yl)(thiophen-3-yl)methyl)-4,5,6,7-tetrahydrothieno[3,2-c]pyridine] | 15.5 µM |  |  | 
COc1ccccc1C(c1nnnn1C(C)(C)C)N1CCC2CCCCC2C1 (centres unmarked) [Example 82, 2-((1-(tert-butyl)-1H-tetrazol-5-yl)(2-methoxyphenyl)methyl)deca-hydroisoquinoline] | 6.2 µM |  |  | 
CC(C)(C)n1nnnc1C(c1cccs1)N1CCc2sccc2C1 (centres unmarked) [Example 62, 5-((1-(tert-butyl)-1H-tetrazol-5-yl)(thiophen-2-yl)methyl)-4,5,6,7-tetrahydrothieno[3,2-c]pyridine] | 12.2 µM |  |  | 
CC(C)(C)n1nnnc1C(c1ccccc1Br)N1CCc2sccc2C1 (centres unmarked) [Example 65, 5-((2-bromophenyl)(1-(tert-butyl)-1H-tetrazol-5-yl)methyl)-4,5,6,7-tetrahydrothieno[3,2-c]pyridine] | 66.2 µM |  |  | 
CSc1ccccc1C(c1nnnn1C(C)(C)C)N1CCc2sccc2C1 (centres unmarked) [Example 70, 5-((1-(tert-butyl)-1H-tetrazol-5-yl)(2-(methylthio)phenyl)methyl)-4,5,6,7-tetrahydrothieno[3,2-c]pyridine] | 14.8 µM |  |  | 
CC(C)(C)n1nnnc1C(c1ccccc1Br)N1CCc2ccc(Cl)cc2C1 (centres unmarked) [Example 17] |  |  |  | T/C ([2]; test concentration 5 uM): 87%
COc1ccsc1C(c1nnnn1C1(C)CCCCC1)N1CCc2sccc2C1 (centres unmarked) [Example 75, 5-((3-methoxythiophen-2-yl)(1-(1-methylcyclohexyl)-1H-tetrazol-5-yl)methyl)-4,5,6,7-tetrahydrothieno[3,2-c]pyridine] | 2.1 µM |  |  | 
COc1ccsc1C(c1nnnn1C(C)(C)C)N1CCc2sccc2C1 (centres unmarked) [Example 72, 5-((1-(tert-butyl)-1H-tetrazol-5-yl)(3-methoxythiophen-2-yl)methyl)-4,5,6,7-tetrahydrothieno[3,2-c]pyridine] | 3.2 µM |  |  | 

Second part, led by results:

left shift value [1, 3] | left shift value [1, 4] | T/C ([2]; test concentration 10 uM) | Structure (SMILES) | other results
 | 35.7 µM |  | CC(C)(C)n1nnnc1C(c1ccc(Br)cc1)N1CCc2ccccc2C1 (centres unmarked) [Example 4] | T/C ([2]; test concentration 5 uM): 100.1%
 | 10.4 µM | 155.2% | COc1ccc(C(c2nnnn2C(C)(C)C)N2CCc3ccccc3C2)c(OC)c1 (centres unmarked) [Example 12] | 
 |  | 94.1% | CC(C)(C)n1nnnc1C(c1ccccc1N=O)N1CCc2ccc(Cl)cc2C1 (centres unmarked) [Example 18] | 
 |  | 95% | Cc1ccccc1C(c1nnnn1C(C)(C)C)N1CCc2ccccc2C1 (centres unmarked) [Example 11] | 
 | 24.9 µM | 151.7% | CC(C)(C)n1nnnc1C(c1ccccc1OCc1ccccc1)N1CCc2ccccc2C1 (centres unmarked) [Example 1, 2-((2-(benzyloxy)phenyl)(1-tert-butyl-1H-tetrazol-5-yl)methyl)-1,2,3,4-tetrahydroisoquinoline] | 
 | 13.4 µM | 153.2% | Cc1ccc(C(c2nnnn2C(C)(C)C)N2CCc3ccccc3C2)cc1 (centres unmarked) [Example 9] | 
34.9 µM |  |  | COc1ccc(C(c2nnnn2C(C)(C)C)N2CCc3sccc3C2)cc1 (centres unmarked) [Example 63, 5-((1-(tert-butyl)-1H-tetrazol-5-yl)(4-methoxyphenyl)methyl)-4,5,6,7-tetrahydrothieno[3,2-c]pyridine] | 
 | 8.4 µM | 153.8% | CC(C)(C)n1nnnc1C(C1=CCC=C1)N1CCc2ccccc2C1 (centres unmarked) [Example 32] | 
 | 163.7 µM | 105.5% | CC(C)(C)n1nnnc1C(c1ccccc1N)N1CCc2ccccc2C1 (centres unmarked) [Example 26] | 
 | 15.2 µM | 135.5% | Cc1ccccc1C(c1nnnn1C(C)(C)C)N1CCc2c(Cl)cccc2C1 (centres unmarked) [Example 29] | 
44.6 µM |  |  | CC(C)(C)n1nnnc1C(c1nccs1)N1CCc2ccccc2C1 (centres unmarked) [Example 73, 2-((1-(tert-butyl)-1H-tetrazol-5-yl)(3,4-dihydroisoquinolin-2(1H)-yl)methyl)thiazole] | 
 | 15.1 µM | 147.0% | COc1cc(F)ccc1C(c1nnnn1C(C)(C)C)N1CCc2ccccc2C1 (centres unmarked) [Example 38] | 
 |  | 89.3% | CC(C)(C)n1nnnc1C(c1cc2ccccc2[nH]1)N1CCc2ccccc2C1 (centres unmarked) [Example 40] | 
 | 32.4 µM | 122.4% | COc1cccc(C(c2nnnn2C(C)(C)C)N2CCc3ccccc3C2)c1 (centres unmarked) [Example 15] | 
 | 232.2 µM | 104.6% | CC(C)(C)n1nnnc1C(c1ccccc1F)N1CCc2ccc(Cl)cc2C1 (centres unmarked) [Example 16] | 
 | 7.2 µM |  | CC(C)(C)n1nnnc1C(c1ccccc1Cl)N1CCc2ccccc2C1 (centres unmarked) [Example 53] | 
 |  | 104.7% | CC(C)(C)n1nnnc1C(c1cc2ccccc2s1)N1CCc2ccccc2C1 (centres unmarked) [Example 49] | 
16.1 µM |  |  | CC(C)(C)n1nnnc1C(c1ccccc1)N1CCc2sccc2C1 (centres unmarked) [Example 59, 5-((1-(tert-butyl)-1H-tetrazol-5-yl)(phenyl)methyl)-4,5,6,7-tetrahydrothieno[3,2-c]pyridine] | 
 |  | 105.0% | CC(C)(C)n1nnnc1C(c1cc2ccccc2o1)N1CCc2ccccc2C1 (centres unmarked) [Example 50] | 
 |  | 93.7% | CC(C)(C)n1nncc1C(c1ccc(C(F)(F)F)cc1)N1CCc2ccccc2C1 (centres unmarked) [Example 6] | 
 | 35 µM |  | Cc1ccccc1C(c1nnnn1C(C)(C)C)N1CCc2ccccc2C1 (centres unmarked) [Example 55] | 
26.5 µM |  |  | COc1c(F)cccc1C(c1nnnn1C(C)(C)C)N1CCc2ccccc2C1 (centres unmarked) [Example 80, 2-((1-(tert-butyl)-1H-tetrazol-5-yl)(3-fluoro-2-methoxyphenyl)methyl)-1,2,3,4-tetrahydroisoquinoline] | 
 | 4.3 µM |  | CCCOc1ccccc1C(c1nnnn1C(C)(C)C)N1CCc2ccccc2C1 (centres unmarked) [Example 52] | 
